Laboratory results: ChEMBL document CHEMBL6120974, “Hydrazide-Based Class I Selective HDAC Inhibitors Completely Reverse Chemoresistance Synergistically in Platinum-Resistant Solid Cancer Cells” (J Med Chem, 2024)
Converted amounts (≈) assume the structure as drawn. The source made the active and inactive calls. The rule behind the calls is not given here.

How the values were obtained:
[1] = Solubility of the compound in PBS buffer at pH 7.4 incubated for 72 hrs by HPLC/UV analysis; type: physicochemical
Cal27CisR [2] = experiment: Induction of apoptosis in human Cal27CisR cells assessed as increase in BIM expression at 0.316 uM incubated for 48 hrs by Immunoblotting analysis; type: functional, cell-based
[3] = Lipophilicity, logD of the compound in 1-octanol/PBS buffer at pH 7.4 by HPLC/UV analysis; type: physicochemical; settings: 1-octanol/PBS buffer, read-out: logD
Cal27CisR [4] = experiment: Induction of cell cycle arrest in cisplatin resistant human Cal27CisR cells assessed as increase in p21 expression at 0.316 uM incubated for 48 hrs by Western blotting analysis; type: functional, cell-based
[5] = target: T1, Protein deacetylase HDAC6 (Homo sapiens) (UniProt Q9UBN7); experiment: (§1) Inhibition of N-terminal GST-tagged full length recombinant human HDAC6 (1 to 1215 end residues) expressed in sf9 cells at > 10 uM using ZMAL (Z-Lys(Ac)-AMC as fluorogenic substrate preincubated with compound for 60 mins followed by substrate addition and measured after 90 mins by fluorescence based microplate reader analysis relative to control; settings: time 150.0 min
T1 sequence (whole entry): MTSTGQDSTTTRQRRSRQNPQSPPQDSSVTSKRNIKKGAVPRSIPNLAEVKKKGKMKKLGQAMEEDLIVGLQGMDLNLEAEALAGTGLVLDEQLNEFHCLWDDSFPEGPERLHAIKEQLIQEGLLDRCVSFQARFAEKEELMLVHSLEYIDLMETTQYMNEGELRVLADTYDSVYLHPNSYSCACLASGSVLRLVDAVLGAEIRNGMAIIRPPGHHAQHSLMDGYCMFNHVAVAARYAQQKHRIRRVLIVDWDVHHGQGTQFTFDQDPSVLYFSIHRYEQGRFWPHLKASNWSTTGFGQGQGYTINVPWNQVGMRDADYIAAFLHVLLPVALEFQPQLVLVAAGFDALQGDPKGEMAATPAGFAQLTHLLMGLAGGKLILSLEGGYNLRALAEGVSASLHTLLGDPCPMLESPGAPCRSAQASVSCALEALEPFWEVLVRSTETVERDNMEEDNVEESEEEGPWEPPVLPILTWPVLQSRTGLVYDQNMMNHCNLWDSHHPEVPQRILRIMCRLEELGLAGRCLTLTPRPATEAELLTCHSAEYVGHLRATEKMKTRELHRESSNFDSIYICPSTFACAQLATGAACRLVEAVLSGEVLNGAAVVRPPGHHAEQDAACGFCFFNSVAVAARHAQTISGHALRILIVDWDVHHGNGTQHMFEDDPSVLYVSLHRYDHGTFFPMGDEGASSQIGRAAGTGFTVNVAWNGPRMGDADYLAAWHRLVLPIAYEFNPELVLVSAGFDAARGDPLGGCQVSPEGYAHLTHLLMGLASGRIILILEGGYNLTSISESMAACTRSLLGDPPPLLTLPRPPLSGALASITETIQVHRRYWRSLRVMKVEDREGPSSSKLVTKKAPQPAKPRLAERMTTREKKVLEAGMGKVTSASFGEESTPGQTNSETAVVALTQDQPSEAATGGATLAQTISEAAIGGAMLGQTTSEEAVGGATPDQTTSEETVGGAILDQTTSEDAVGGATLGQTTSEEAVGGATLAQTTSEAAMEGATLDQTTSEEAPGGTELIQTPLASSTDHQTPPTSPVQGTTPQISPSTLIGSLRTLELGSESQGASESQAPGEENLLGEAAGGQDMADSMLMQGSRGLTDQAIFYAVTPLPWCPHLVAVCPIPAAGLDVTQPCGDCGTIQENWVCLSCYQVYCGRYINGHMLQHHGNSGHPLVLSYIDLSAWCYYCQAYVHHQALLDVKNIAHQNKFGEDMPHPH

Cal27CisR [6] = experiment: Induction of apoptosis in cisplatin resistant human Cal27CisR cells assessed as decrease in BAX expression at 0.316 uM in presence of cisplatin at 16.5 uM preincubated with compound for 24 to 72 hrs prior to addition of cisplatin and measured after 24 hrs by Immunoblotting analysis; type: functional, cell-based; settings: time 48-96 hrs
Cal27CisR [7] = experiment: Induction of apoptosis in cisplatin resistant human Cal27CisR cells assessed as decrease in BIM expression at 0.316 uM incubated for 24 to 72 hrs by Immunoblotting analysis; type: functional, cell-based; settings: time 24-72 hrs
A2780 [8] = experiment: Induction of apoptosis in human A2780 cells assessed as increase in BIM expression at 0.75 uM incubated for 48 hrs by Immunoblotting analysis; type: functional, cell-based
Cal27CisR [9] = experiment: Downregulation of survivin expression in cisplatin resistant human Cal27CisR cells at 0.316 uM in presence of cisplatin at 16.5 uM preincubated with compound for 48 hrs prior to addition of cisplatin and measured after 24 hrs by Immunoblotting analysis; type: functional, cell-based; settings: time 72.0 hrs
Cal27CisR [10] = experiment: Induction of apoptosis in cisplatin resistant human Cal27CisR cells assessed as decrease in Bcl-2 expression at 0.316 uM incubated for 24 to 72 hrs by Immunoblotting analysis; type: functional, cell-based; settings: time 24-72 hrs
Cal27CisR [11] = experiment: Induction of apoptosis in cisplatin resistant human Cal27CisR cells assessed as decrease in p21 expression at 0.316 uM incubated for 24 to 72 hrs by Immunoblotting analysis; type: functional, cell-based; settings: time 24-72 hrs
Histone deacetylase 4 = Histone deacetylase 4 (Homo sapiens, UniProt P56524); experiment: Inhibition of recombinant HDAC4 (unknown origin) using Bos-Lys(TFA)-AMC as substrate preincubated with compound for 5 mins and measured after 90 mins by NOVOstar microplate reader analysis
HL-60 = experiment: cells; settings: Homo sapiens, HL-60, 72 h
Description: Cytotoxicity against human HL-60 cells harboring p53 null assessed as cell viability incubated for 72 hrs by MTT assay

CAL-27 = experiment: Induction of apoptosis in human CAL-27 cells assessed as increase in Bcl-2 protein level at 0.316 uM in presence of cisplatin at 3 uM preincubated with compound for 48 hrs prior to addition of cisplatin and measured after 24 hrs by Immunoblotting analysis; type: functional, cell-based
Cal27CisR [12] = experiment: Induction of DNA damage in cisplatin resistant human Cal27CisR cells assessed as increase in gammaH2AX formation at 0.316 uM in presence of cisplatin at 16.5 uM pretreated with compound for 48 hrs prior to addition of cisplatin and measured after 24 hrs by Hoechst 33342 staining based Immunofluorescence analysis; type: functional, cell-based; settings: time 72.0 hrs
Cal27CisR [13] = experiment: Induction of apoptosis in cisplatin resistant human Cal27CisR cells assessed as decrease in survivin expression at 0.316 uM in presence of cisplatin at 16.5 uM preincubated with compound for 24 to 72 hrs prior to addition of cisplatin and measured after 24 hrs by Immunoblotting analysis; type: functional, cell-based; settings: time 48-96 hrs
Cal27CisR [14] = experiment: Induction of apoptosis in cisplatin resistant human Cal27CisR cells assessed as decrease in BAX expression at 0.316 uM incubated for 24 to 72 hrs by Immunoblotting analysis; type: functional, cell-based; settings: time 24-72 hrs
[15] = target: T1, Protein deacetylase HDAC6 (Homo sapiens); experiment: as §1, with “3.33” for “10”
A2780 [16] = experiment: Effect of Bcl-2 protein level in human A2780 cells at 0.75 uM incubated for 48 hrs by Immunoblotting analysis; type: functional, cell-based
A2780cisR = experiment: Effect of Bcl-2 protein level in cisplatin resistant human A2780 cisR cells at 2 uM incubated for 48 hrs by Immunoblotting analysis; type: functional, cell-based

Histone deacetylase 4, sequence (P56524 whole entry): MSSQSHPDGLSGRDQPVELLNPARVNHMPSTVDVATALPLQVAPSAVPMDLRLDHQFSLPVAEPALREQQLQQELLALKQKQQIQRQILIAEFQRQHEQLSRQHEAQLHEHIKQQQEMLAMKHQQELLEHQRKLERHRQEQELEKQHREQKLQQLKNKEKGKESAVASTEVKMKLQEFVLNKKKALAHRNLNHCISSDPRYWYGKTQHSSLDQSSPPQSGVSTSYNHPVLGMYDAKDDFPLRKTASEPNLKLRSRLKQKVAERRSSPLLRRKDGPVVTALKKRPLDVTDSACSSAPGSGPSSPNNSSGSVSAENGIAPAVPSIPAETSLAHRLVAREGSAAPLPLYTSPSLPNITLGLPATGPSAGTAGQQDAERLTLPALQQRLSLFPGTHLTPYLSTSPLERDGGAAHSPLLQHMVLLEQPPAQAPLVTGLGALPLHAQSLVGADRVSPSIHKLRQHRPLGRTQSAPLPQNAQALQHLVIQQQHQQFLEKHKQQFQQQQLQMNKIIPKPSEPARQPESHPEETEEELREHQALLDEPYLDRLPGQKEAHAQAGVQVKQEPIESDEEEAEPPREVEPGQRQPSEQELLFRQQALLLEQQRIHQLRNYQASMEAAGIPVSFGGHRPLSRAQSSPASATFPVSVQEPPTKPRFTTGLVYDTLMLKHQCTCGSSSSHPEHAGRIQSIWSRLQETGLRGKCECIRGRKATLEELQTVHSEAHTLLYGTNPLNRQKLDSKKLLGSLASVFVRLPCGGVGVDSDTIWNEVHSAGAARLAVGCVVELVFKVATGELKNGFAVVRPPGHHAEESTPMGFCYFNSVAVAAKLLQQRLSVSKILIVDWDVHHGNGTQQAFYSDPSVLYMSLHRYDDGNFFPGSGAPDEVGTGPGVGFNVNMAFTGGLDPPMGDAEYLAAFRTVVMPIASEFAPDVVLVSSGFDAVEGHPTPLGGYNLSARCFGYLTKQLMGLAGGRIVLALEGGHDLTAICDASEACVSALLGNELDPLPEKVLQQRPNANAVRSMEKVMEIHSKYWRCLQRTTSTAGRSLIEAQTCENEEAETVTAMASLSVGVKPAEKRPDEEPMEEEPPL

With `CCCNNC(=O)c1ccc(CN(CC(=O)NCc2ccccc2)C(=O)c2ccc(N(C)C)cc2)cc1` the solubility at 72 h [1] was 16.8 µg/mL (≈ 33.5 µM), the Activity (Cal27CisR [2]) was “Active” and the logD [3] was 3.76. For the same compound, the Activity (Cal27CisR [4]) was “Active”, the inhibition [5] was less than 25% and the Activity (Cal27CisR [6]) was “Active”. For the same compound, the Activity (Cal27CisR [7]) was “inactive”, the Activity (A2780 [8]) was “inactive” and the Activity (Cal27CisR [9]) was “Active”. The Activity (Cal27CisR [10]) was “inactive”, the Activity (Cal27CisR [11]) was “inactive” and the IC50 (Histone deacetylase 4) was greater than 10000 nM. For the same compound, the IC50 (HL-60) was 431 nM, the Activity (CAL-27) was “Not active; Slight Increase Observed” and the Activity (Cal27CisR [12]) was “Active”. For the same compound, the Activity (Cal27CisR [13]) was “Active” and the Activity (Cal27CisR [14]) was “inactive”.

In the case of `CCCCNNC(=O)c1ccc(CN(CC(=O)NCc2ccccc2)C(=O)c2ccc(N(C)C)cc2)cc1`, the Activity (Cal27CisR [2]) is reported as “Active”, the Activity (Cal27CisR [4]) is reported as “Active” and the inhibition [15] is reported as less than 25%. The Activity (A2780 [16]) was “inactive”, the Activity (A2780 [8]) was “inactive” and the Activity (Cal27CisR [9]) was “Active”. The Activity (A2780cisR) was “inactive”, the IC50 (Histone deacetylase 4) was greater than 10000 nM and the IC50 (HL-60) was 474 nM. The Activity (CAL-27) was “Not active; Slight Increase Observed” and the Activity (Cal27CisR [12]) was “Active”.
